Experimental data: EP2125023B1, “SOLUBLE FORMS OF INCLUSION COMPLEXES OF HISTONE DEACETYLASE INHIBITORS AND CYCLODEXTRINS, THEIR PREPARATION PROCESSES AND USES IN THE PHARMACEUTICAL FIELD” (Universita'Degli Studi di Roma "La Sapienza", priority 2007, dated 2008)

Assay: Solubility tests on SAHA in aqueous HPβCD solutions by UV spectrophotometry
Assay type: physicochemical
Details: for Concentration: dissolved SAHA in the filtered solution brought to 10 ml, by Lambert and Beer's law with mean ε; for Assorbance (AU): water, one week stirring at room temperature, filtered, brought to 10 ml, read at 240 nm
Procedure: Five aqueous solutions of SAHA in cyclodextrin were prepared, maintaining a constant amount of drug and gradually increasing the cyclodextrin concentraion.
Two mg of SAHA (0.0075 mmol) are weighed in five assay tubes and to each is added 1 ml of a solution of 2-hydroxypropyl-β-cyclodextrin (HPβCD) in double-distilled water; we started with a molar ratio of 1:1 corresponding to 0.0116 g of cyclodextrin, proceeding then with molar ratios of 1:2 corresponding to 0.0232 g, 1:3 corresponding to 0.035 g, 1:4 corresponding to 0.046, up to a final ratio of 1:5, corresponding to 0.058 g of cyclodextrin.
The tubes thus prepared and well sealed are left for one week under stirring in a mechanical stirrer at room temperature.
At the end of this period, the solutions are filtered with a 0.5 µm diameter membrane filter in five 10 ml round-bottomed flasks brought to volume with double-distilled water, and the spectrophotometric readings are taken at 240 nm.
From the mean value of ε calculated previously, and using Lambert and Beer's law, the millimolar concentrations of the five solutions can be calculated, as shown in the table.

Compound: O=C(CCCCCCC(=O)Nc1ccccc1)NO [SAHA, suberoylanilide hydroxamic acid]
- Concentration (SAHA:HPβCD molar ratio 1:1): 126 µM
- Assorbance (AU) (SAHA:HPβCD molar ratio 1:1): 1.6862 AU
- Concentration (SAHA:HPβCD molar ratio 1:2): 191 µM
- Assorbance (AU) (SAHA:HPβCD molar ratio 1:2): 2,5591 AU
- Concentration (SAHA:HPβCD molar ratio 1:3): 196 µM
- Assorbance (AU) (SAHA:HPβCD molar ratio 1:3): 2.6196 AU
- Concentration (SAHA:HPβCD molar ratio 1:4): 207 µM
- Assorbance (AU) (SAHA:HPβCD molar ratio 1:4): 2.7752 AU
- Concentration (SAHA:HPβCD molar ratio 1:5): 216 µM
- Assorbance (AU) (SAHA:HPβCD molar ratio 1:5): 2.8932 AU
